Our source for the IC50 values is patent US20240360151A1 (SANOFI, priority 2023, published 2024).

Structures are written as SMILES. Bounds are passed on as bounds.

Usually IC50 stands for the concentration at which inhibition is half-maximal.

T1 sequence (Q96P20 whole entry): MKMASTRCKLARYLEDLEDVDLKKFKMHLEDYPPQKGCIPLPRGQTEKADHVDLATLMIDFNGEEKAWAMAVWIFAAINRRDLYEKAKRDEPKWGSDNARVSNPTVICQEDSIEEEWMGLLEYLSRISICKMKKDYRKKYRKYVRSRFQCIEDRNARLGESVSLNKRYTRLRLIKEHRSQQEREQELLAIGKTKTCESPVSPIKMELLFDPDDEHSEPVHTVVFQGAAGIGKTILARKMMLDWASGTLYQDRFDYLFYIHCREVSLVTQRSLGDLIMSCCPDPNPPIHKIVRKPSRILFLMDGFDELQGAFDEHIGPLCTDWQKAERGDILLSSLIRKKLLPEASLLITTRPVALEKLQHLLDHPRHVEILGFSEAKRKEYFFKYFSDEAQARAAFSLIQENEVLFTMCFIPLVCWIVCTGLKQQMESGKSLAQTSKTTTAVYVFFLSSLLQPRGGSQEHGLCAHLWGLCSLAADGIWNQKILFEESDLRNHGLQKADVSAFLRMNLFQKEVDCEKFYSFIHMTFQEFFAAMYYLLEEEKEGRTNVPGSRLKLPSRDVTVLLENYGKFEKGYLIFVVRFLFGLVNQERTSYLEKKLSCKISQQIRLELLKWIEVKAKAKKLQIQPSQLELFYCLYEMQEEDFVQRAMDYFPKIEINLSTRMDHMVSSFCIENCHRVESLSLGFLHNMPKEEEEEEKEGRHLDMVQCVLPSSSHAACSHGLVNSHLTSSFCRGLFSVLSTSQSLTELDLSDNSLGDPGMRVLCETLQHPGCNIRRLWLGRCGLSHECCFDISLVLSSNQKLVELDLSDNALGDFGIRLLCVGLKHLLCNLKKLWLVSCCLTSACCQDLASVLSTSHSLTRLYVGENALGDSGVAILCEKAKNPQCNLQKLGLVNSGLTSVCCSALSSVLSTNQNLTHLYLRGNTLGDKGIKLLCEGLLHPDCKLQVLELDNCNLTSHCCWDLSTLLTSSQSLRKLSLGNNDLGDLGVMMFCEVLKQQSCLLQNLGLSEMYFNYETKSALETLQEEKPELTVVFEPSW

This assay addresses T1, NLRP3 inflammasome (Homo sapiens, UniProt Q96P20).
T1 construct: endogenous in cells; host or cells: THP-1 monocytic cells
The assay can be described thus: IL-1β secretion assay (NLRP3 IC50) in LPS-primed, nigericin-activated THP-1 cells, HTRF. The class given is cell-based. As to conditions: monocytic THP-1 cells; LPS 10 ng/mL 3 h priming, then compound + nigericin 10 μM 2 h; relative IC50, 10 concentrations, geometric mean. How it is done:
Monocytic THP-1 cells were maintained in RPMI 1640 media (Gibco 21875)+10% FBS, (Gibco 10500)+1% penicillin/streptomycin (Gibco 15140-122). Cells were then plated at 40,000 cells per well in 384-well cell culture plates (CoRNning 3542) and maintained with RPMI1640 (Gibco 11835)+5% FBS (Gibco 10500). Activation of the NLRP3 inflammasome requires both an NF-kB-dependent priming step and the addition of a NLRP3 activator. The priming step was induced by LPS (10 ng/mL, InvivoGen ref tlrl-3pelps) for 3 h at 37° C., then compound, in a 1:3 serial dilution series in DMSO (final concentration DMSO 0.1%), and the activator nigericin (Sigma Aldrich, ref: SML1779) 10 μM (final concentration) were added to the cells and co-incubated for 2 hours. 16 μL supernatant was removed, and IL-1β levels were monitored using an HTRF assay (Human IL1b Kits HTRF Cisbio ref: 62HILBPEH) according to manufacturers' instructions.
Data were expressed as percentage of inhibition (I %) as compared to a maximum signal control containing no small molecule (I %=0%) according to the formula: 1%=(1−((Sample−Min))/((Max−Min)))×100, where: • Sample: Signal obtained in the presence of each compound tested, • Max: Maximum signal in the absence of compound added, • Min: Minimum or background signal obtained in the absence of activation signal.
Relative IC50 (IC50 rel) were obtained from a dose response curve with 10 concentrations. Final IC50 rels are expressed as the geometric mean.
Relative IC50 values were estimated with Biost@t-SPEED v2.4 internal software based on SAS system using the 4-parameter logistic model according to Ratkovsky and Reedy (D. A. Ratkovsky, T. J. Reedy, Choosing near-linear parameters in the four parameters logistic model radioligands and related assays. Biometrics, 42 (1986), 575-582): Y=A+C/((1+exp(−B*(log(X)−M)))), where: • A: Lower asymptote (BOTTOM), • A+C: Upper asymptote (TOP), • M: the logarithm of the concentration estimated at the inflexion point (the logarithm of the relative IC50), • B: Slope at the inflexion point of the curve.
(In general: In TR-FRET formats the signal depends on donor and acceptor labels being close together.)
Regarding `Cc1cc(C)c(-c2nnc(N3CCO[C@H](CO)C3)cc2CO)c(O)c1` [Example 186, 2-[4-(hydroxymethyl)-6-[(2S)-2-(hydroxymethyl)morpholin-4-yl]pyridazin-3-yl]-3,5-dimethyl-phenol], the half-maximal inhibitory concentration (IC50) came to 1050 nM.

On to `Cc1cc(C(F)(F)F)cc(O)c1-c1ccc(N2CCO[C@@H](CF)C2)nn1` (single isomer, unassigned) [Example 283], for which the IC50 came to 135 nM.

With `CCc1cc(Cl)cc(O)c1-c1ccc(N2CCO[C@@H]3CCN(CC)C[C@@H]32)nn1` [Example 526, 2-[6-[(4aS,8aR)-6-ethyl-3,4a,5,7,8,8a-hexahydro-2H-pyrido[4,3-b][1,4]oxazin-4-yl]pyridazin-3-yl]-5-chloro-3-ethyl-phenol], the IC50 is 1 nM.

Turning to `COC[C@@H]1CCN(c2ccc(-c3c(C)cc(C)cc3O)nn2)C1` [Example 88, 2-[6-[(3R)-3-(methoxymethyl)pyrrolidin-1-yl]pyridazin-3-yl]-3,5-dimethyl-phenol], the IC50 is 1150 nM.

As to `CCN1CC[C@H]2CCN(c3cc(C(F)F)c(-c4ccc(C(F)(F)F)cc4O)nn3)[C@H]2C1` (single isomer, unassigned) [Example 486], the IC50 is < 0.3 nM.

As for `Cc1cc(C(F)(F)F)cc(O)c1-c1ccc(N2CCC[C@H]3[C@@H]2CCCN3C)nn1` [Example 515, 2-[6-[(4aS,8aS)-5-methyl-2,3,4,4a,6,7,8,8a-octahydro-1,5-naphthyridin-1-yl]pyridazin-3-yl]-3-methyl-5-(trifluoromethyl)phenol], the 50% inhibitory concentration (IC50) is 44 nM.

For `Cc1cc(C(F)(F)F)cc(O)c1-c1ccc(N2CCOC(C(C)(C)O)C2)nn1` (single isomer, unassigned) [Example 52, 2-[6-[2-(1-hydroxy-1-methyl-ethyl)morpholin-4-yl]pyridazin-3-yl]-3-methyl-5-(trifluoromethyl)phenol], the IC50 came out at 1250 nM.

With `CN1CC[C@@H]2CCN(c3ccc(-c4c(O)cccc4C(F)(F)F)nn3)[C@@H]2C1` (single isomer, unassigned) [Example 426], the concentration for half-maximal inhibition (IC50) was 952 nM.

Regarding `CCN1CC[C@H]2OCCN(c3cc(C(F)F)c(-c4ccc(Cl)cc4O)nn3)[C@H]2C1` [Example 456, 2-[6-[(4aS,8aR)-6-ethyl-3,4a,5,7,8,8a-hexahydro-2H-pyrido[4,3-b][1,4]oxazin-4-yl]-4-(difluoromethyl)pyridazin-3-yl]-5-chloro-phenol], the concentration for half-maximal inhibition (IC50) was found to be 2 nM.

As to `CN1CC[C@H]2CCN(c3cc(C(F)F)c(-c4ccc(C(F)(F)F)cc4O)nn3)[C@H]2C1` (single isomer, unassigned) [Example 483], the half-maximal inhibitory concentration (IC50) was 1 nM.

Turning to `CC(=O)NC[C@@H]1CN(c2ccc(-c3c(C)cc(C)cc3O)nn2)CCO1` [Example 106, N-[[(2R)-4-[6-(2-hydroxy-4,6-dimethyl-phenyl)pyridazin-3-yl]morpholin-2-yl]methyl]acetamide], the IC50 amounted to 174 nM.

`CCN1CC2OCCN(c3ccc(-c4c(C)cc(C(F)(F)F)cc4O)nn3)C2C1` (racemic) [Example 376, 3-methyl-2-[6-[rac-(4aR,7aR)-6-ethyl-2,3,4a,5,7,7a-hexahydropyrrolo[3,4-b][1,4]oxazin-4-yl]pyridazin-3-yl]-5-(trifluoromethyl)phenol]: the IC50 was 180 nM.

Regarding `CCN1CC[C@H]2CCN(c3ccc(-c4c(C)cc(C)cc4O)nn3)[C@H]2C1` (single isomer, unassigned) [Example 504], the concentration for half-maximal inhibition (IC50) came to 1080 nM.

With `Cc1cc(C)c(O)c(-c2ccc(N3CCO[C@H](CO)C3)nn2)c1` [Example 152, 2-[6-[(2S)-2-(hydroxymethyl)morpholin-4-yl]pyridazin-3-yl]-4,6-dimethylphenol], the IC50 was found to be 5980 nM.

`Cc1cc(C)c(-c2ccc(N3CC[C@]4(COCCN4C)C3)nn2)c(O)c1` [Example 450, 3,5-dimethyl-2-[6-[(5R)-6-methyl-9-oxa-2,6-diazaspiro[4.5]decan-2-yl]pyridazin-3-yl]phenol]: the IC50 turned out to be 2040 nM.

Take `Cc1cc(C)c(-c2ccc(N3CCO[C@@H]4CCN(CCCF)C[C@@H]43)nn2)c(O)c1` [Example 527, 2-[6-[(4aS,8aR)-6-(3-fluoropropyl)-3,4a,5,7,8,8a-hexahydro-2H-pyrido[4,3-b][1,4]oxazin-4-yl]pyridazin-3-yl]-3,5-dimethyl-phenol]: the 50% inhibitory concentration (IC50) amounted to 20 nM.

Consider `CN1CC[C@H]2CCN(c3cc(C(F)F)c(-c4ccc(Cl)cc4O)nn3)[C@H]2C1` (single isomer, unassigned) [Example 500], for which the IC50 amounted to 62 nM.

In the case of `CCN1CC[C@H]2CCN(c3cc(C)c(-c4ccc(C)cc4O)nn3)[C@H]2C1` (single isomer, unassigned) [Example 475], the half-maximal inhibitory concentration (IC50) is 93 nM.

Take `Cc1ccc(-c2nnc(N3CCO[C@H]4CCN(C)C[C@H]43)cc2C(F)F)c(O)c1` [Example 306, 2-[6-[(4aR,8aS)-6-methyl-3,4a,5,7,8,8a-hexahydro-2H-pyrido[4,3-b][1,4]oxazin-4-yl]-4-(difluoromethyl)pyridazin-3-yl]-5-methyl-phenol]: the half-inhibitory concentration (IC50) was determined as 1510 nM.

On to `CCN1CC[C@H]2OCCN(c3ccc(-c4c(C)cc(C)cc4O)nn3)[C@H]2C1` [Example 404, 2-[6-[(4aS,8aR)-6-ethyl-3,4a,5,7,8,8a-hexahydro-2H-pyrido[4,3-b][1,4]oxazin-4-yl]pyridazin-3-yl]-3,5-dimethyl-phenol], for which the IC50 was 0.75 nM.

As for `Cc1cc(C)c(-c2ccc(N3CCC[C@@H]4CCN(C)C[C@@H]43)nn2)c(O)c1` [Example 519, 2-[6-[(4aR,8aR)-7-methyl-2,3,4,4a,5,6,8,8a-octahydro-1,7-naphthyridin-1-yl]pyridazin-3-yl]-3,5-dimethyl-phenol], the IC50 was 7 nM.

`Cc1cc(N2CCO[C@@H]3CCN(C)C[C@@H]32)nnc1-c1ccc(F)cc1O` [Example 480, 2-[6-[(4aS,8aR)-6-methyl-3,4a,5,7,8,8a-hexahydro-2H-pyrido[4,3-b][1,4]oxazin-4-yl]-4-methyl-pyridazin-3-yl]-5-fluoro-phenol]: the IC50 was found to be 6 nM.

Take `Cc1cc(C)c(-c2ccc(N3CCO[C@@H](CC(=O)N(C)C)C3)nn2)c(O)c1` (single isomer, unassigned) [Example 151]: the half-inhibitory concentration (IC50) amounted to 1170 nM.

As for `CCN1CC[C@H]2CCN(c3ccc(-c4c(C)cc(Cl)cc4O)nn3)[C@H]2C1` (single isomer, unassigned) [Example 496], the IC50 is 546 nM.

As to `Cc1cc(N2CC[C@H]3CCN(C)C[C@H]32)nnc1-c1ccc(Cl)cc1O` (single isomer, unassigned) [Example 468], the IC50 was determined as 544 nM.

On to `Cc1cc(C)c(-c2ccc(N3CCOc4cnccc43)nn2)c(O)c1` [Example 215, 2-[6-(2,3-dihydropyrido[3,4-b][1,4]oxazin-1-yl)pyridazin-3-yl]-3,5-dimethyl-phenol], for which the IC50 turned out to be 1460 nM.

As for `Cc1cc(C)c(-c2ccc(N3CCC[C@@H](N(C)C)C3)nn2)c(O)c1` [Example 148, 2-[6-[(3R)-3-(dimethylamino)-1-piperidyl]pyridazin-3-yl]-3,5-dimethyl-phenol], the half-inhibitory concentration (IC50) came to 922 nM.

With `Cc1cc(C)c(-c2ccc(N3CCO[C@@H]4CCN(CCF)C[C@@H]43)nn2)c(O)c1` [Example 521, 2-[6-[(4aS,8aR)-6-(2-fluoroethyl)-3,4a,5,7,8,8a-hexahydro-2H-pyrido[4,3-b][1,4]oxazin-4-yl]pyridazin-3-yl]-3,5-dimethyl-phenol], the IC50 was 28 nM.
